According to US20230107642A1 (Erasca, Inc., priority 2020, published 2023):

The compounds below were run against T1, K-Ras G12C (Homo sapiens, UniProt P01116, G12C) (assay: CAF assay (% CAF; method in Example 7, not in this part)). Conditions: 10 uM compound, 1 h incubation.
T1 construct: This protein contained 188 amino acids in total, including an N-terminal 6-Histidine tag; made in house; host or cells: E. coli BL21
Type: binding

Compound | % CAF @ 10 uM, 1h
C=CC(=O)N1C[C@H](C)N(c2nc(=O)n3c4c(c(-c5ccc(F)cc5F)c(C(F)(F)F)cc24)SC[C@@H]3COCCOC)C[C@H]1C (atropisomer, axis not shown) [Example 510, (3S,10S)-7-((2S,5R)-4-acryloyl-2,5-dimethylpiperazin-1-yl)-10-(2,4-difluorophenyl)-3-((2-methoxyethoxy)methyl)-9-(trifluoromethyl)-2,3-dihydro-5H-[1,4]thiazino[2,3,4-ij]quinazolin-5-one] | 72.9%
C=CC(=O)N1C[C@H](C)N(c2nc(=O)n3c4c(c(-c5ccc(F)cc5F)c(C(F)(F)F)cc24)SC[C@@H]3COCCOC)C[C@H]1C (atropisomer, axis not shown) [Example 511, (3S,10R)-7-((2S,5R)-4-acryloyl-2,5-dimethylpiperazin-1-yl)-10-(2,4-difluorophenyl)-3-((2-methoxyethoxy)methyl)-9-(trifluoromethyl)-2,3-dihydro-5H-[1,4]thiazino[2,3,4-ij]quinazolin-5-one] | 80.6%
C=CC(=O)N1C[C@H](C)N(c2nc(=O)n3c4c(c(-c5cc(Cl)c(F)cc5F)c(C(F)(F)F)cc24)SC[C@@H]3COC)C[C@H]1C (atropisomer, axis not shown) [Example 544, (3S,10S)-7-((2S,5R)-4-acryloyl-2,5-dimethylpiperazin-1-yl)-10-(5-chloro-2,4-difluorophenyl)-3-(methoxymethyl)-9-(trifluoromethyl)-2,3-dihydro-5H-[1,4]thiazino[2,3,4-ij]quinazolin-5-one] | 48.8%
C=CC(=O)N1C[C@H](C)N(c2nc(=O)n3c4c(c(-c5cc(Cl)c(F)cc5F)c(C(F)(F)F)cc24)SC[C@@H]3COC)C[C@H]1C (atropisomer, axis not shown) [Example 545, (3S,10R)-7-((2S,5R)-4-acryloyl-2,5-dimethylpiperazin-1-yl)-10-(5-chloro-2,4-difluorophenyl)-3-(methoxymethyl)-9-(trifluoromethyl)-2,3-dihydro-5H-[1,4]thiazino[2,3,4-ij]quinazolin-5-one] | 94.1%
C=CC(=O)N1[C@H](C)CN(c2nc(=O)n3c4c(c(-c5ccc(F)cc5F)c(C(F)(F)F)cc24)SC[C@@H]3COC)C[C@@H]1C (atropisomer, axis not shown) [Example 546, (3S,10S)-7-((3S,5R)-4-acryloyl-3,5-dimethylpiperazin-1-yl)-10-(2,4-difluorophenyl)-3-(methoxymethyl)-9-(trifluoromethyl)-2,3-dihydro-5H-[1,4]thiazino[2,3,4-ij]quinazolin-5-one] | 94.3%
C=CC(=O)N1[C@H](C)CN(c2nc(=O)n3c4c(c(-c5ccc(F)cc5F)c(C(F)(F)F)cc24)SC[C@@H]3COC)C[C@@H]1C (atropisomer, axis not shown) [Example 547, (3S,10R)-7-((3S,5R)-4-acryloyl-3,5-dimethylpiperazin-1-yl)-10-(2,4-difluorophenyl)-3-(methoxymethyl)-9-(trifluoromethyl)-2,3-dihydro-5H-[1,4]thiazino[2,3,4-ij]quinazolin-5-one] | 96.7%
C=CC(=O)N1CCN(c2nc(=O)n3c4c(c(-c5ccc(F)cc5F)c(C(F)(F)F)cc24)SC[C@@H]3COCOC)[C@@H](C)C1 (atropisomer, axis not shown) [Example 548, (3S,10R)-7-((S)-4-acryloyl-2-methylpiperazin-1-yl)-10-(2,4-difluorophenyl)-3-((methoxymethoxy)methyl)-9-(trifluoromethyl)-2,3-dihydro-5H-[1,4]thiazino[2,3,4-ij]quinazolin-5-one] | 95.7%
C=CC(=O)N1CCN(c2nc(=O)n3c4c(c(-c5ccc(F)cc5F)c(C(F)(F)F)cc24)SC[C@@H]3COCOC)[C@@H](C)C1 (atropisomer, axis not shown) [Example 549, (3S,10S)-7-((S)-4-acryloyl-2-methylpiperazin-1-yl)-10-(2,4-difluorophenyl)-3-((methoxymethoxy)methyl)-9-(trifluoromethyl)-2H-[1,4]thiazino[2,3,4-ij]quinazolin-5(3H)-one] | 80.2%
C=CC(=O)N1CCN(c2nc(=O)n3c4c(c(-c5cc(Cl)c(F)cc5F)c(C(F)(F)F)cc24)SC[C@@H]3COCOC)[C@@H](C)C1 (atropisomer, axis not shown) [Example 552, (3S,10R)-7-((S)-4-acryloyl-2-methylpiperazin-1-yl)-10-(5-chloro-2,4-difluorophenyl)-3-((methoxymethoxy)methyl)-9-(trifluoromethyl)-2,3-dihydro-5H-[1,4]thiazino[2,3,4-ij]quinazolin-5-one] | 62.2%
C=CC(=O)N1CCN(c2nc(=O)n3c4c(c(-c5cc(Cl)c(F)cc5F)c(C(F)(F)F)cc24)SC[C@@H]3COCOC)[C@@H](C)C1 (atropisomer, axis not shown) [Example 553, (3S,10S)-7-((S)-4-acryloyl-2-methylpiperazin-1-yl)-10-(5-chloro-2,4-difluorophenyl)-3-((methoxymethoxy)methyl)-9-(trifluoromethyl)-2H-[1,4]thiazino[2,3,4-ij]quinazolin-5(3H)-one] | 37%
C=CC(=O)N1C[C@H](C)N(c2nc(=O)n3c4c(c(-c5cc(Cl)c(F)cc5F)c(C(F)(F)F)cc24)SC[C@@H]3COCCOC)C[C@H]1C (atropisomer, axis not shown) [Example 554, (3S,10S)-7-((2S,5R)-4-acryloyl-2,5-dimethylpiperazin-1-yl)-10-(5-chloro-2,4-difluorophenyl)-3-((2-methoxyethoxy)methyl)-9-(trifluoromethyl)-2H-[1,4]thiazino[2,3,4-ij]quinazolin-5(3H)-one] | 11.3%
C=CC(=O)N1C[C@H](C)N(c2nc(=O)n3c4c(c(-c5cc(Cl)c(F)cc5F)c(C(F)(F)F)cc24)SC[C@@H]3COCCOC)C[C@H]1C (atropisomer, axis not shown) [Example 555, (3S,10R)-7-((2S,5R)-4-acryloyl-2,5-dimethylpiperazin-1-yl)-10-(5-chloro-2,4-difluorophenyl)-3-((2-methoxyethoxy)methyl)-9-(trifluoromethyl)-2,3-dihydro-5H-[1,4]thiazino[2,3,4-ij]quinazolin-5-one] | 67.6%
C=CC(=O)N1C[C@H](C)N(c2nc(=O)n3c4c(c(-c5cc(Cl)c(F)cc5F)c(C(F)(F)F)cc24)SC[C@@H]3CN2CCN(CC(F)F)CC2)C[C@H]1C (atropisomer, axis not shown) [Example 556, (3S,10R)-7-((2S,5R)-4-acryloyl-2,5-dimethylpiperazin-1-yl)-10-(5-chloro-2,4-difluorophenyl)-3-((4-(2,2-difluoroethyl)piperazin-1-yl)methyl)-9-(trifluoromethyl)-2H-[1,4]thiazino[2,3,4-ij]quinazolin-5(3H)-one] | 73.1%
C=CC(=O)N1C[C@H](C)N(c2nc(=O)n3c4c(c(-c5cc(Cl)c(F)cc5F)c(C(F)(F)F)cc24)SC[C@@H]3CN2CCN(CC(F)F)CC2)C[C@H]1C (atropisomer, axis not shown) [Example 557, (3S,10S)-7-((2S,5R)-4-acryloyl-2,5-dimethylpiperazin-1-yl)-10-(5-chloro-2,4-difluorophenyl)-3-((4-(2,2-difluoroethyl)piperazin-1-yl)methyl)-9-(trifluoromethyl)-2H-[1,4]thiazino[2,3,4-ij]quinazolin-5(3H)-one] | 21.2%
C=CC(=O)N1[C@H](C)CN(c2nc(=O)n3c4c(c(-c5cc(Cl)c(F)cc5F)c(C(F)(F)F)cc24)SC[C@@H]3COC)C[C@@H]1C (atropisomer, axis not shown) [Example 563, (3S,10R)-7-((3S,5R)-4-acryloyl-3,5-dimethylpiperazin-1-yl)-10-(5-chloro-2,4-difluorophenyl)-3-(methoxymethyl)-9-(trifluoromethyl)-2,3-dihydro-5H-[1,4]thiazino[2,3,4-ij]quinazolin-5-one] | 93.9%
C=CC(=O)N1[C@H](C)CN(c2nc(=O)n3c4c(c(-c5cc(Cl)c(F)cc5F)c(C(F)(F)F)cc24)SC[C@@H]3COC)C[C@@H]1C (atropisomer, axis not shown) [Example 564, (3S,10S)-7-((3S,5R)-4-acryloyl-3,5-dimethylpiperazin-1-yl)-10-(5-chloro-2,4-difluorophenyl)-3-(methoxymethyl)-9-(trifluoromethyl)-2,3-dihydro-5H-[1,4]thiazino[2,3,4-ij]quinazolin-5-one] | 80.8%
C=CC(=O)N1[C@H](C)CN(c2nc(=O)n3c4c(c(-c5cc(Cl)c(F)cc5F)c(C(F)(F)F)cc24)SC[C@@H]3CN2CCC3(CC2)COC3)C[C@@H]1C (atropisomer, axis not shown) [Example 565, (3S,10S)-3-((2-oxa-7-azaspiro[3.5]nonan-7-yl)methyl)-7-((3S,5R)-4-acryloyl-3,5-dimethylpiperazin-1-yl)-10-(5-chloro-2,4-difluorophenyl)-9-(trifluoromethyl)-2,3-dihydro-5H-[1,4]thiazino[2,3,4-ij]quinazolin-5-one] | 48.3%
C=CC(=O)N1[C@H](C)CN(c2nc(=O)n3c4c(c(-c5cc(Cl)c(F)cc5F)c(C(F)(F)F)cc24)SC[C@@H]3CN2CCC3(CC2)COC3)C[C@@H]1C (atropisomer, axis not shown) [Example 566, (3S,10R)-3-((2-oxa-7-azaspiro[3.5]nonan-7-yl)methyl)-7-((3S,5R)-4-acryloyl-3,5-dimethylpiperazin-1-yl)-10-(5-chloro-2,4-difluorophenyl)-9-(trifluoromethyl)-2,3-dihydro-5H-[1,4]thiazino[2,3,4-ij]quinazolin-5-one] | 77.7%
C=CC(=O)N1C[C@H](C)N(c2nc(=O)n3c4c(c(-c5cccc6cnn(C)c56)c(Cl)cc24)SC[C@@H]3CN2CCN(CC(F)F)CC2)C[C@H]1C (atropisomer, axis not shown) [Example 569, (3S,10R)-7-((2S,5R)-4-acryloyl-2,5-dimethylpiperazin-1-yl)-9-chloro-3-((4-(2,2-difluoroethyl)piperazin-1-yl)methyl)-10-(1-methyl-1H-indazol-7-yl)-2,3-dihydro-5H-[1,4]thiazino[2,3,4-ij]quinazolin-5-one] | 93.4%
